The series is described as follows: Assay of SAP and AA2G by HPLC (ascorbic acid derivative loss). The format is physicochemical. Conditions: in FL#1, HPLC. The text has this: The amount of ascorbic acid derivative content in a composition can be determined using a wide range of techniques including, but not limited to: titrimetric, spectrophotometric, electrochemical, fluorimetric, enzymatic and chromatographic. Methods for determining ascorbic acid derivative content in a topical composition can be complicated/confounded by the presence of excipients or other antioxidant agents (e.g., agents for stabilizing Vitamin C), as well as degradation products. Of the above-listed methods, high performance liquid chromatography may be preferred. See, A M Maia et al., “Validation of HPLC stability-indicating method for Vitamin C in semisolid pharmaceutical/cosmetic preparations . . . ” Talanta Vol. 71, pp. 639-643 (2007).
In addition, an assay of SAP and AA2G were analyzed by HPLC.

As for `O=C1O[C@H]([C@@H](O)CO)C(O)=C1O[C@H]1O[C@H](CO)[C@@H](O)[C@H](O)[C@H]1O` [AA2G, ascorbyl glucoside], the “% Loss @25° C. (4 weeks)” value (25° C.) is reported as −1.00%. Moreover, the “% Loss @37° C. (4 weeks)” value (37° C.) was −1.00%. Moreover, the “% Loss @40° C. (4 weeks)” value (40° C.) is recorded as −1.00%. For the same compound, the “% Loss @45° C. (4 weeks)” value (45° C.) amounted to 0%.

Source of the values: US20250186325A1, “COMPOSITIONS OF ASCORBIC ACID SALTS” (SHISEIDO COMPANY, LTD., priority 2023, published 2025).
